± gives the expanded uncertainty stated by the source.
Conditions: Fluid (supercritical or subcritical phases), Bellows volumetry

Question: For `CCC` [propane], which mass density (280 K, 581.4 kPa) is on record?
Answer: 519.39 ± 0.94 kg/m3

Question: And the mass density (280 K, 604.8 kPa)?
Answer: 519.45 ± 0.94 kg/m3

Question: And the mass density (280 K, 628.1 kPa)?
Answer: 519.49 ± 0.96 kg/m3

Question: What about the mass density (280 K, 651.4 kPa) of the same compound?
Answer: 519.57 ± 0.97 kg/m3

Question: What about the mass density (280 K, 674.7 kPa) of the same compound?
Answer: 519.62 ± 0.97 kg/m3

Question: And the mass density (280 K, 698 kPa)?
Answer: 519.69 ± 0.94 kg/m3

Question: And the mass density (280 K, 721.4 kPa)?
Answer: 519.75 ± 0.94 kg/m3

Question: What about the mass density (300 K, 1006 kPa) of the same compound?
Answer: 489.83 ± 0.88 kg/m3

Question: What about the mass density (300 K, 1029.4 kPa) of the same compound?
Answer: 489.89 ± 0.88 kg/m3

Question: What about the mass density (300 K, 1052.6 kPa) of the same compound?
Answer: 489.98 ± 0.88 kg/m3

Question: What about the mass density (300 K, 1075.9 kPa) of the same compound?
Answer: 490.05 ± 0.88 kg/m3

Question: What about the mass density (300 K, 1099.3 kPa) of the same compound?
Answer: 490.1 ± 0.88 kg/m3

Question: And the mass density (300 K, 1122.6 kPa)?
Answer: 490.2 ± 0.9 kg/m3

Question: What about the mass density (300 K, 1145.9 kPa) of the same compound?
Answer: 490.3 ± 0.88 kg/m3

Question: And the mass density (320 K, 1611.1 kPa)?
Answer: 455.49 ± 0.82 kg/m3

Question: And the mass density (320 K, 1634.4 kPa)?
Answer: 455.61 ± 0.82 kg/m3

Question: What about the mass density (320 K, 1657.6 kPa) of the same compound?
Answer: 455.75 ± 0.82 kg/m3

Question: What about the mass density (320 K, 1680.9 kPa) of the same compound?
Answer: 455.88 ± 0.84 kg/m3

Question: And the mass density (320 K, 1704.2 kPa)?
Answer: 455.99 ± 0.84 kg/m3

Question: And the mass density (320 K, 1727.5 kPa)?
Answer: 456.09 ± 0.82 kg/m3

Question: And the mass density (320 K, 1750.7 kPa)?
Answer: 456.24 ± 0.82 kg/m3

Question: What about the mass density (340 K, 2447.1 kPa) of the same compound?
Answer: 412.74 ± 0.74 kg/m3

Question: And the mass density (340 K, 2470.3 kPa)?
Answer: 412.98 ± 0.74 kg/m3

Question: What about the mass density (340 K, 2493.4 kPa) of the same compound?
Answer: 413.23 ± 0.74 kg/m3

Question: What about the mass density (340 K, 2516.6 kPa) of the same compound?
Answer: 413.48 ± 0.76 kg/m3

Question: What about the mass density (340 K, 2539.8 kPa) of the same compound?
Answer: 413.66 ± 0.76 kg/m3

Question: And the mass density (340 K, 2563 kPa)?
Answer: 413.88 ± 0.75 kg/m3

Question: And the mass density (340 K, 2586.2 kPa)?
Answer: 414.08 ± 0.74 kg/m3

Question: What about the mass density (360 K, 3558 kPa) of the same compound?
Answer: 346.61 ± 0.64 kg/m3

Question: And the mass density (360 K, 3558.8 kPa)?
Answer: 346.43 ± 0.64 kg/m3

Question: And the mass density (360 K, 3566.8 kPa)?
Answer: 346.83 ± 0.63 kg/m3

Question: And the mass density (360 K, 3569.1 kPa)?
Answer: 347.17 ± 0.63 kg/m3

Question: And the mass density (360 K, 3569.9 kPa)?
Answer: 346.97 ± 0.64 kg/m3

Question: What about the mass density (360 K, 3580.3 kPa) of the same compound?
Answer: 347.61 ± 0.63 kg/m3

Question: And the mass density (360 K, 3591.6 kPa)?
Answer: 348.04 ± 0.63 kg/m3

Question: What about the mass density (360 K, 3592.2 kPa) of the same compound?
Answer: 347.94 ± 0.63 kg/m3

Question: And the mass density (360 K, 3602.8 kPa)?
Answer: 348.46 ± 0.64 kg/m3

Question: And the mass density (360 K, 3614 kPa)?
Answer: 348.96 ± 0.69 kg/m3

Question: And the mass density (360 K, 3614.5 kPa)?
Answer: 348.91 ± 0.63 kg/m3

Question: What about the mass density (360 K, 3622.6 kPa) of the same compound?
Answer: 349.31 ± 0.63 kg/m3

Question: What about the mass density (360 K, 3625.2 kPa) of the same compound?
Answer: 349.4 ± 0.63 kg/m3

Question: What about the mass density (360 K, 3636.5 kPa) of the same compound?
Answer: 349.82 ± 0.71 kg/m3

Question: And the mass density (360 K, 3636.9 kPa)?
Answer: 349.82 ± 0.63 kg/m3

Question: And the mass density (360 K, 3647.8 kPa)?
Answer: 350.25 ± 0.65 kg/m3

Question: What about the mass density (360 K, 3659 kPa) of the same compound?
Answer: 350.7 ± 0.65 kg/m3

Question: And the mass density (360 K, 3659.4 kPa)?
Answer: 350.7 ± 0.65 kg/m3

Question: What about the mass density (360 K, 3670.3 kPa) of the same compound?
Answer: 351.13 ± 0.65 kg/m3

Question: What about the mass density (360 K, 3678.7 kPa) of the same compound?
Answer: 351.52 ± 0.65 kg/m3

Question: What about the mass density (360 K, 3681.8 kPa) of the same compound?
Answer: 351.59 ± 0.65 kg/m3

Question: And the mass density (360 K, 3704.3 kPa)?
Answer: 352.44 ± 0.8 kg/m3

Question: And the mass density (360 K, 3726.8 kPa)?
Answer: 353.19 ± 0.65 kg/m3

Question: And the mass density (365 K, 3897.8 kPa)?
Answer: 317.84 ± 0.66 kg/m3

Question: What about the mass density (365 K, 3903 kPa) of the same compound?
Answer: 318.4 ± 0.65 kg/m3

Question: And the mass density (365 K, 3923.7 kPa)?
Answer: 320.49 ± 0.64 kg/m3

Question: And the mass density (365 K, 3944.7 kPa)?
Answer: 322.39 ± 0.63 kg/m3

Question: And the mass density (365 K, 3965.9 kPa)?
Answer: 324.14 ± 0.63 kg/m3

Question: What about the mass density (365 K, 3987.2 kPa) of the same compound?
Answer: 325.86 ± 0.62 kg/m3

Question: And the mass density (365 K, 4008.7 kPa)?
Answer: 327.39 ± 0.61 kg/m3

Question: What about the mass density (365 K, 4030.4 kPa) of the same compound?
Answer: 328.84 ± 0.63 kg/m3
